Read-outs that look alike come from different tables or passages of the source.
Experiments:
THP-1 cells = test: Measurement of IL-1β production, hTRF protocol (second alternative procedure), THP-1 cells; assay type: cell-based, human; conditions: read-out: NLRP3 hILIB EC50
In short: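 THP-1 cells differentiated overnight with 50 ng/ml PMA, then plated at 50,000 cells/well in RPMI with 2% FBS onto serial compound dilutions (top final concentration 10 μM) for 2 hours at 37° C. Supernatant IL-1β measured by hTRF (antibodies at 1:40, overnight at 4° C), read at 665/615 nm against a standard curve.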

TLR7 = target: T1, TLR7 (Homo sapiens, UniProt Q9NYK1); test: In vitro human TLR7 binding reporter assay (HEK-Blue, NF-kB/AP1-inducible SEAP); assay type: cell-based; conditions: read-out: TLR7 Agonist EC50
T1 construct: human HEK-Blue cells co-expressing a TLR7 or TLR8 gene
T1 sequence (Q9NYK1 27-1049): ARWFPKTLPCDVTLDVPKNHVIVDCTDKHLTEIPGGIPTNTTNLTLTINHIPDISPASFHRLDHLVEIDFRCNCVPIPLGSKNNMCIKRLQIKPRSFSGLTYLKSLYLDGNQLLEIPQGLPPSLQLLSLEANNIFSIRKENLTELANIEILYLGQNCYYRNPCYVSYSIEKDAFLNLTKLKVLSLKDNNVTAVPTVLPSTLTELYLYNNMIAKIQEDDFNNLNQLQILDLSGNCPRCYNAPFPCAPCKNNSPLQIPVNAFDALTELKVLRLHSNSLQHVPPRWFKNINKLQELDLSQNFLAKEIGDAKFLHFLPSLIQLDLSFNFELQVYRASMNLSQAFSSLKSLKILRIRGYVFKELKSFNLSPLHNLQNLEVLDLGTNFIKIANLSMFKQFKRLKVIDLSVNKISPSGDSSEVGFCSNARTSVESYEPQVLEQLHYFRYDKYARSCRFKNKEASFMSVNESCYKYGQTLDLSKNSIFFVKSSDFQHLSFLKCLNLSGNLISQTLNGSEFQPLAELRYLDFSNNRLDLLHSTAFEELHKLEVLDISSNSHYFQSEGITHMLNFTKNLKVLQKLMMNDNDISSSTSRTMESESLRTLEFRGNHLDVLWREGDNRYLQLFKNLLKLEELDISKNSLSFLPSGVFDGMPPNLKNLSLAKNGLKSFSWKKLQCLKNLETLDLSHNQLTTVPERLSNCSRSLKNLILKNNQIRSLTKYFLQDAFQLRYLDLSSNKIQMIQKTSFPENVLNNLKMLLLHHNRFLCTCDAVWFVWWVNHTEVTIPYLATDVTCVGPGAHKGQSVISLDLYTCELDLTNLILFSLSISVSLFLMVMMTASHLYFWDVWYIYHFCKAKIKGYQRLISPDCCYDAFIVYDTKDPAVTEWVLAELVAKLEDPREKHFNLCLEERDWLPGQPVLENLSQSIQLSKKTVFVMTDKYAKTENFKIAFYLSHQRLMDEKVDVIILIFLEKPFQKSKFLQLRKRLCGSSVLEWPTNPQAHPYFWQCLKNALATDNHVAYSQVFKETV
In short: (§1)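 HEK-Blue cells expressing human TLR7 or TLR8 with NF-kB/AP1-inducible SEAP reporter, plated 24 h, then compound-treated 18 h at 37° C, 5% CO2. EC50 normalized to 100% Ymax set by 50 μM reference standard.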

TLR8 = target: T2, TLR8 (Homo sapiens, UniProt Q9NR97); test: In vitro human TLR8 binding reporter assay (HEK-Blue, NF-kB/AP1-inducible SEAP); assay type: cell-based; conditions: read-out: TLR8 Agonist EC50
T2 construct: human HEK-Blue cells co-expressing a TLR7 or TLR8 gene
T2 sequence (Q9NR97 27-1041): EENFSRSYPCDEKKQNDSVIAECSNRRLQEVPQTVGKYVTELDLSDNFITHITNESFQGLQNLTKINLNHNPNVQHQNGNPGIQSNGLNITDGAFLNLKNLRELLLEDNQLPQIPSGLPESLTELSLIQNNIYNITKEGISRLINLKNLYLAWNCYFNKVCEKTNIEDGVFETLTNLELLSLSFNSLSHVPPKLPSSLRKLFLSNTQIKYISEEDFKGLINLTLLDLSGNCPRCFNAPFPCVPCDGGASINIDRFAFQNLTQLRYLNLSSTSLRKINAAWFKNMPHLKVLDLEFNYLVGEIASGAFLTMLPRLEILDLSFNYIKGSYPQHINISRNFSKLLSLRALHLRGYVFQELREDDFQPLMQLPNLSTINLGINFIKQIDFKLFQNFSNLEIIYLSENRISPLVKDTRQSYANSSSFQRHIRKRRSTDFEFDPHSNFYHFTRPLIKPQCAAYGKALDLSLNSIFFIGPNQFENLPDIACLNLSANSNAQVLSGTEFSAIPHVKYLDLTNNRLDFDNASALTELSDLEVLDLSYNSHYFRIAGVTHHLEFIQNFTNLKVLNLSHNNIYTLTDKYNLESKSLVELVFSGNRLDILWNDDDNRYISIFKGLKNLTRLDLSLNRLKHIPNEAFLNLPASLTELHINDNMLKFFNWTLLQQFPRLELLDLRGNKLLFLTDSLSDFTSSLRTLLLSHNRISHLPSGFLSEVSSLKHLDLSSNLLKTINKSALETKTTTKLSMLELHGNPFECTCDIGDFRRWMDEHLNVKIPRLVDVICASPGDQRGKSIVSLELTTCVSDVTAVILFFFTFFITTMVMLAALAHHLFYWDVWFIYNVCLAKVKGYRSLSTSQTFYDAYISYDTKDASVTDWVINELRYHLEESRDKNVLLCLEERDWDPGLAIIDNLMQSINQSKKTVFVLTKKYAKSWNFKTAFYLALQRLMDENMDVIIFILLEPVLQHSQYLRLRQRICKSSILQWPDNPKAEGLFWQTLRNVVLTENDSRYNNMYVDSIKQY
In short: as §1

[1] = Homo sapiens, THP-1, IL-1β production, human
[2] = Homo sapiens, THP-1, IL-1β production, human cells

| Compound | EC50 (THP-1 cells; [1]) [µM] | EC50 (TLR7; activity range class) [µM] | EC50 (TLR8; activity range class) [µM] | EC50 (THP-1 cells; IL-1β production, human) [µM] | EC50 (THP-1 cells; [2]) [µM] | EC50 (TLR7; activity range) [µM] | EC50 (TLR8; activity range) [µM] |
| --- | --- | --- | --- | --- | --- | --- | --- |
| Cc1ccc(C(=O)NCCn2cc3c(n2)c(N)nc2cc(-c4cc[nH]n4)ccc23)nc1 [Example 94] | 0.21 | > 100 | 20 to 100 |  |  |  |  |
| Nc1nc2cc(-c3ccn[nH]3)ccc2c2nn(CC3CCCN3)cc12 (stereo not drawn) [Example 278] | 0.75 | > 100 | > 100 |  |  |  |  |
| CCCn1cc2c(n1)c(N)nc1cc(-c3ccn[nH]3)ccc12 [Example 187] | 0.22 | > 100 | > 100 |  |  |  |  |
| Cc1nc(Cn2cc3c(N)nc4cc(-c5cc[nH]n5)ccc4c3n2)no1 [Example 355] | 2.57 | > 100 | > 100 |  |  |  |  |
| CC(CCO)n1cc2c(N)nc3cc(-c4cc[nH]n4)ccc3c2n1 (single isomer, unassigned) [Example 288, 3-(4-amino-7-(1H-pyrazol-3-yl)-2H-pyrazolo[4,3-c]quinolin-2-yl)butan-1-ol] |  | > 100 | > 100 | 0.45 |  |  |  |
| Cc1cnc(C(=O)NCCn2cc3c(n2)c(N)nc2cc(-c4cc[nH]n4)ccc23)cn1 [Example 52] | 0.62 | > 100 | > 100 |  |  |  |  |
| CS(=O)(=O)CCCn1cc2c(N)nc3cc(-c4cc[nH]n4)ccc3c2n1 [Example 211] | 0.63 | > 100 | > 100 |  |  |  |  |
| Nc1nc2cc(-c3cc[nH]n3)ccc2c2nn(C3CCCCC3O)cc12 (stereo not drawn) [Example 317] | 2.42 | > 100 | > 100 |  |  |  |  |
| Nc1nc2cc(-c3cccs3)ccc2c2cn(CCNC(=O)c3ccccn3)nc12 [Example 131] | 0.61 | > 100 | > 100 |  |  |  |  |
| Nc1nc2cc(-c3cc[nH]n3)ccc2c2nn(CCC(=O)NC3CCC3)cc12 [Example 504] |  |  |  |  | 2.34 | > 100 | > 100 |
| Nc1nc2cc(-c3cc[nH]n3)ccc2c2cn(CCCO)nc12 [Example 1, 3-[4-amino-7-(1H-pyrazol-3-yl)-2H-pyrazolo[3,4-c]quinolin-2-yl]propan-1-ol] | 0.45 | > 100 | > 100 |  |  |  |  |
| Nc1nc2cc(-c3cc[nH]n3)ccc2c2nn(CCN3CCCC3=O)cc12 [Example 383] | 1.38 | > 100 | > 100 |  |  |  |  |
| CCOCCn1ncc2c(N)nc3cc(-c4cc[nH]n4)ccc3c21 [Example 223] | 0.45 | > 100 | > 100 |  |  |  |  |
| Nc1nc2cc(-c3cc[nH]n3)ccc2c2nn(C3CCCCC3O)cc12 (single isomer, unassigned) [Example 319] |  | > 100 | > 100 | 1.13 |  |  |  |
| Cc1cccc(OCCCn2cc3c(n2)c(N)nc2cc(-c4cc[nH]n4)ccc23)c1 [Example 8] | 0.89 | > 100 | > 100 |  |  |  |  |
| COCCn1cc2c(n1)c(N)nc1cc(-c3ccn[nH]3)ccc12 [Example 185] | 0.21 | 1 to 20 | > 100 |  |  |  |  |
| CC(=O)N1CCOCC1Cn1cc2c(N)nc3cc(-c4ccn[nH]4)ccc3c2n1 (stereo not drawn) [Example 269] | 4.38 | > 100 | > 100 |  |  |  |  |
| Nc1nc2cc(-c3cc[nH]n3)ccc2c2cn(CCNC(=O)c3ccc(OC(F)(F)F)cn3)nc12 [Example 67] | 0.38 | > 100 | > 100 |  |  |  |  |
| CC(C(=O)NCC(F)F)n1cc2c(N)nc3cc(-c4ccn[nH]4)ccc3c2n1 (stereo not drawn) [Example 567] |  |  |  |  | 0.97 | > 100 | > 100 |
| Nc1nc2cc(-c3cc[nH]n3)ccc2c2nn(C3CCCC3O)cc12 (single isomer, unassigned) [Example 315] |  | > 100 | > 100 | 0.89 |  |  |  |
| CC(Cn1ncc2c(N)nc3cc(-c4cc[nH]n4)ccc3c21)NS(C)(=O)=O (stereo not drawn) [Example 302] | 3.49 | > 100 | > 100 |  |  |  |  |
| Nc1nc2cc(-c3cc[nH]n3)ccc2c2cn(CCNc3ccccn3)nc12 [Example 194, 7-(1H-pyrazol-3-yl)-2-(2-(pyridin-2-ylamino)ethyl)-2H-pyrazolo[3,4-c]quinolin-4-amine] | 0.22 | > 100 | > 100 |  |  |  |  |
| CS(=O)(=O)NCCCn1cc2c(N)nc3cc(-c4ccn[nH]4)ccc3c2n1 [Example 586] |  |  |  |  | 2.18 | > 100 | > 100 |
| Nc1nc2cc(-c3ccn[nH]3)ccc2c2nn(CC3COCCN3)cc12 (stereo not drawn) [Example 255] | 10.9 | > 100 | > 100 |  |  |  |  |
| COc1ccc(CC(=O)NCCn2cc3c(n2)c(N)nc2cc(-c4cc[nH]n4)ccc23)cc1 [Example 32] | 14.7 | 1 to 20 | > 100 |  |  |  |  |
| C[C@H](CO)Cn1cc2c(N)nc3cc(-c4cc[nH]n4)ccc3c2n1 [Example 308] | 0.41 | > 100 | > 100 |  |  |  |  |
| Cc1nnc(Cn2cc3c(N)nc4cc(-c5cc[nH]n5)ccc4c3n2)o1 [Example 243] | 1.39 | > 100 | > 100 |  |  |  |  |
| CC(C(=O)NCc1ccccc1)n1cc2c(N)nc3cc(-c4ccn[nH]4)ccc3c2n1 (stereo not drawn) [Example 571] |  |  |  |  | 2.02 | > 100 | > 100 |

Source: patent publication US12037344B2, “NLRP3 modulators” (INNATE TUMOR IMMUNITY, INC., priority 2018, dated 2024)
